ChEMBL document CHEMBL5108056, “Discovery of Isoform-Selective Akt3 Degraders Overcoming Osimertinib-Induced Resistance in Non-Small Cell Lung Cancer Cells” (J Med Chem, 2022)
The source made the active and inactive calls. No cut-off for these calls is given here.

What was measured:
[1] = biological target: RAC-alpha serine/threonine-protein kinase (Homo sapiens, UniProt P31749); test: Induction of AKT1 degradation in human NCI-H1975 cells assessed as reduction in AKT1 protein level incubated for 24 hrs under serum free medium by Western blot analysis; format: cell-based
Sequence of RAC-alpha serine/threonine-protein kinase (P31749 whole entry): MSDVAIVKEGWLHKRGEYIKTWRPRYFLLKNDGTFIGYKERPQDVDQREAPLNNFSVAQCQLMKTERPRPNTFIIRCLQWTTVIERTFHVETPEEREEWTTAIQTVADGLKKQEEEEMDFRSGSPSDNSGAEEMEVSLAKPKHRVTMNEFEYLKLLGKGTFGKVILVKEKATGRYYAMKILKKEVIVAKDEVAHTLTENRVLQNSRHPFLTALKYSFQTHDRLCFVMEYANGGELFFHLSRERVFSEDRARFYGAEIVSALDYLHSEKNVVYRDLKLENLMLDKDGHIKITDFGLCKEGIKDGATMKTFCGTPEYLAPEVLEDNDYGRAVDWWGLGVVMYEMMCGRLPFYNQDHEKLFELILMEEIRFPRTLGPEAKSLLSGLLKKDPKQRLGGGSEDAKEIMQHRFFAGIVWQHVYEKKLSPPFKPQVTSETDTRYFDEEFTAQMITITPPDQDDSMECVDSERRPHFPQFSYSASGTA

[2] = biological target: RAC-beta serine/threonine-protein kinase (Homo sapiens, UniProt P31751); test: Induction of AKT2 degradation in human NCI-H1975 cells assessed as reduction in AKT2 protein level incubated for 24 hrs under serum free medium by Western blot analysis; format: cell-based
Sequence of RAC-beta serine/threonine-protein kinase (P31751 whole entry): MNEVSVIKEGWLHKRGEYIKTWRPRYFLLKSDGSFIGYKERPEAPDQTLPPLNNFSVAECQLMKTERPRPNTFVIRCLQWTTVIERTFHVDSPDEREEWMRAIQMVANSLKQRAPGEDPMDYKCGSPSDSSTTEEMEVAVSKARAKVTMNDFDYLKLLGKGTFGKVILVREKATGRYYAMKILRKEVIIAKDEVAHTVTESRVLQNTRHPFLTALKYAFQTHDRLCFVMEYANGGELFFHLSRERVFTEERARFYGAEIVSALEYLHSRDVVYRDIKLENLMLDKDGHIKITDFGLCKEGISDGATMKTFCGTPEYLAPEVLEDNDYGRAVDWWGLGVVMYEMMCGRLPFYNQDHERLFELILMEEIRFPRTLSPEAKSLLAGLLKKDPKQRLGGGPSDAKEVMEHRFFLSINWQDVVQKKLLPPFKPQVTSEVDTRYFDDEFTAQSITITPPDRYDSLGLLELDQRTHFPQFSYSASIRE

[3] = biological target: T1, RAC-gamma serine/threonine-protein kinase (Homo sapiens, UniProt Q9Y243); test: Induction of AKT3 degradation in human NCI-H1975 cells assessed as reduction in AKT3 protein level incubated for 24 hrs under serum free medium by Western blot analysis; format: cell-based
T1 sequence (Q9Y243 whole entry): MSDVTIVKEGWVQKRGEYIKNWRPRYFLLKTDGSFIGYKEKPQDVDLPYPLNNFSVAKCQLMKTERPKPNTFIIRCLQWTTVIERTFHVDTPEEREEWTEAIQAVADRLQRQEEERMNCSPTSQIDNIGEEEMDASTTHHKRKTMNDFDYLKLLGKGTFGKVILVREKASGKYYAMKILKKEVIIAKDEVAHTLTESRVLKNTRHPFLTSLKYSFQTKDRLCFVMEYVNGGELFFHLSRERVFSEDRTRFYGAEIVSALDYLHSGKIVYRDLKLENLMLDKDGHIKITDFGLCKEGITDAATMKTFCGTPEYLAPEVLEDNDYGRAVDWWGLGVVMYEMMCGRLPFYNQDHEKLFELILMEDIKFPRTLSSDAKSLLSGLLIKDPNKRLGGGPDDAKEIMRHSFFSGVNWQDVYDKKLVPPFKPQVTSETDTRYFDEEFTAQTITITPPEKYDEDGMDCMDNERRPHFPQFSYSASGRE

[4] = biological target: T1, RAC-gamma serine/threonine-protein kinase; test: Induction of AKT3 degradation in human NCI-H1975 cells assessed as reduction in AKT3 protein level at 1000 nM incubated for 24 hrs under serum free medium by Western blot analysis relative to control; format: cell-based
[5] = biological target: T1, RAC-gamma serine/threonine-protein kinase; test: Induction of AKT3 degradation in human A549 cells assessed as reduction in AKT3 protein level incubated for 24 hrs by Western blot analysis; format: cell-based; details: dose 1.6-1000 nM, DDE = dose-dependent effect
[6] = biological target: T1, RAC-gamma serine/threonine-protein kinase; test: Induction of AKT3 degradation in human HCC827 cells assessed as reduction in AKT3 protein level incubated for 24 hrs by Western blot analysis; format: cell-based; details: dose 1.6-1000 nM, DDE = dose-dependent effect
[7] = biological target: T1, RAC-gamma serine/threonine-protein kinase; test: Induction of AKT3 degradation in human NCI-H1975 cells assessed as reduction in AKT3 protein level incubated for 24 hrs by Western blot analysis; format: cell-based; details: dose 1.6-1000 nM, DDE = dose-dependent effect
[8] = biological target: T1, RAC-gamma serine/threonine-protein kinase; test: Induction of AKT3 degradation in human osimertinib resistant NCI-H1975 cells assessed as reduction in AKT3 protein level incubated for 24 hrs by Western blot analysis; format: cell-based; details: dose 1.6-1000 nM, DDE = dose-dependent effect
[9] = biological target: T1, RAC-gamma serine/threonine-protein kinase; test: Induction of AKT3 degradation in human PC-9 cells assessed as reduction in AKT3 protein level incubated for 24 hrs by Western blot analysis; format: cell-based; details: dose 1.6-1000 nM, DDE = dose-dependent effect
[10] = biological target: T1, RAC-gamma serine/threonine-protein kinase; test: Induction of AKT3 degradation in human NCI-H1299 cells assessed as reduction in AKT3 protein level incubated for 24 hrs by Western blot analysis; format: cell-based; details: dose 1.6-1000 nM, DDE = dose-dependent effect
[11] = biological target: T1, RAC-gamma serine/threonine-protein kinase; test: Induction of AKT3 degradation in human NCI-H460 cells assessed as reduction in AKT3 protein level incubated for 24 hrs by Western blot analysis; format: cell-based; details: dose 1.6-1000 nM, DDE = dose-dependent effect
[12] = biological target: T1, RAC-gamma serine/threonine-protein kinase; test: Induction of AKT3 degradation in human osimertinib resistant NCI-H1975 cells assessed as increase in AKT3 degradation at 100 nM incubated for 24 hrs in presence of cycloheximide; format: cell-based
[13] = biological target: T1, RAC-gamma serine/threonine-protein kinase; test: Induction of AKT3 degradation in human osimertinib resistant NCI-H1975 cells assessed as increase in AKT3 ubiquitination at 100 nM incubated for 24 hrs in the presence of proteosome inhibitor MG132 by immunoprecipitation analysis; format: cell-based
[14] = biological target: T1, RAC-gamma serine/threonine-protein kinase; test: Induction of AKT3 degradation in human osimertinib resistant NCI-H1975 cells by gel fluorescence and Coomassie bright blue staining based analysis; format: cell-based
[15] = biological target: T1, RAC-gamma serine/threonine-protein kinase; test: Binding affinity to full length N-terminal His6-sumo tagged AKT3 (unknown origin) expressed Escherichia coli BL21 (DE3) cells incubated for 2 hrs by pull-down/ LC-MS analysis
[16] = biological target: T1, RAC-gamma serine/threonine-protein kinase; test: Binding affinity to AKT3 in human NCI-H1975 cells assessed as increase in thermal stability at 2 uM by thermal shift assay; format: cell-based
[17] = biological target: T1, RAC-gamma serine/threonine-protein kinase; test: Induction of endogenous AKT3 degradation in human osimertinib resistant NCI-H1975 cells; format: cell-based
NCI-H1975 [18] = test: Antiproliferative activity against human osimertinib resistant NCI-H1975 cells assessed as reduction in cell viability measured after 24 hrs by CCK-8 assay; format: functional, cell-based; details: NCI-H1975, 24 h
NCI-H1975 [19] = test: In vivo antitumor activity against human osimertinib resistant NCI-H1975 cells xenografted in NOD-SCID mouse assessed as tumor growth inhibition at 10 mg/kg, ip qd administered every 3 days for 5 weeks relative to control; format: functional, organism-based
NCI-H1975 [20] = test: In vivo antitumor activity against human osimertinib resistant NCI-H1975 cells xenografted in NOD-SCID mouse assessed as tumor growth inhibition at 20 mg/kg, ip qd administered every 3 days for 5 weeks relative to control; format: functional, organism-based
NCI-H1975 [21] = test: In vivo antitumor activity against human osimertinib resistant NCI-H1975 cells xenografted in NOD-SCID mouse assessed as tumor growth inhibition at 40 mg/kg, ip qd administered every 3 days for 5 weeks relative to control; format: functional, organism-based
[22] = Toxicity in NOD-SCID mouse xenografted with human osimertinib resistant NCI-H1975 cells assessed as change in body weight at 10 to 40 mg/kg, […] administered every 3 days for 5 weeks; format: organism-based; details: in vivo, 840 h, dose 10-40 mg/kg
NCI-H1975 [23] = test: In vivo induction of AKT3 degradation in human osimertinib resistant cells xenografted in NOD-SCID mouse assessed as reduction in AKT3 level in tumor tissue at 10 to 40 mg/kg, ip qd administered every 3 days for 5 weeks by Western blot analysis; format: functional, organism-based; details: dose 10-40 mg/kg
PC-9 = test: In vivo antitumor activity against human PC-9 cells xenografted in NOD-SCID mouse assessed as tumor growth inhibition at 20 mg/kg, ip qd administered once every 2 days for 28 days relative to control; format: functional; details: PC-9, 672 h, time 28 day, read-out: TGI
[24] = Toxicity in NOD-SCID mouse xenografted with human PC-9 cells assessed as change in body weight at 20 mg/kg, ip qd administered once every 2 days for 28 days; format: organism-based; details: in vivo, 672 h, time 28 day
[25] = biological target: Epidermal growth factor receptor (Homo sapiens, UniProt P00533); test: Inhibition of EGFR in human NCI-H1975 cells; format: cell-based
Sequence of Epidermal growth factor receptor (P00533 whole entry): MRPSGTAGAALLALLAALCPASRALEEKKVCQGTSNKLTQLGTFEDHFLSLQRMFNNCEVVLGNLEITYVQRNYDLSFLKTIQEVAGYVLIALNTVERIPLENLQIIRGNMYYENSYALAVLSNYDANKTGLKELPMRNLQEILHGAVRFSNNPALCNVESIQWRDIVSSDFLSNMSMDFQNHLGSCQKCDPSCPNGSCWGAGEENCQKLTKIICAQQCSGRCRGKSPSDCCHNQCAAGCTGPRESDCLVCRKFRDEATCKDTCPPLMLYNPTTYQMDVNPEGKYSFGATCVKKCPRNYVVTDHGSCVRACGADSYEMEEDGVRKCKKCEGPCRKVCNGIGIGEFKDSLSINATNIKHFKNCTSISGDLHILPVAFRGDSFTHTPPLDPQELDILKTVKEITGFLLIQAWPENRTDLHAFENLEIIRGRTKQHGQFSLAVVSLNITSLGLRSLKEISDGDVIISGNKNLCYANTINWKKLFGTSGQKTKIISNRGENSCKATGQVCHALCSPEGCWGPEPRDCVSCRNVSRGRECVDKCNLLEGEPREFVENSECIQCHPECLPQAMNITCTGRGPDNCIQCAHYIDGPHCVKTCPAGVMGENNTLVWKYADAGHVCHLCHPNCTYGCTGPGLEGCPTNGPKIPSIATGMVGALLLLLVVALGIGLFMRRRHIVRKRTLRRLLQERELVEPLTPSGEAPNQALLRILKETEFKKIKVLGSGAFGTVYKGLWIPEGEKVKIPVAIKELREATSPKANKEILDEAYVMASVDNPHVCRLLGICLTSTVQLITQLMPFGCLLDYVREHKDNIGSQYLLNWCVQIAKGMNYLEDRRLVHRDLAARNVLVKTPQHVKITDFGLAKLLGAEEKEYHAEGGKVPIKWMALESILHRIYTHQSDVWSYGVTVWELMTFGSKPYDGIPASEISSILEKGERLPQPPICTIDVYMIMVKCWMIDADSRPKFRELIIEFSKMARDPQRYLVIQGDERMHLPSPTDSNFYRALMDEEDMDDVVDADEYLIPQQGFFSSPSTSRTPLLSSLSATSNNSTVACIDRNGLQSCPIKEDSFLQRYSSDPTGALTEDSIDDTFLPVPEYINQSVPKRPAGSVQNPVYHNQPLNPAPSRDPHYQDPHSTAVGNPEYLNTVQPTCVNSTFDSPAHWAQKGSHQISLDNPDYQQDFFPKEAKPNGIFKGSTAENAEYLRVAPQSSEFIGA

COc1cc(N2CCN(CCCCCCCCCCCCNC(=O)CC34CC5CC(CC(C5)C3)C4)CC2)ccc1Nc1ncc2c(C)cc(=O)n(-c3cccc(NC(=O)C4CC4)c3)c2n1
EC50 [1]: > 1 µM | EC50 [2]: > 1 µM | EC50 [3]: 0.013 µM | Emax [4]: 88% | Activity [5]: Dde | Activity [6]: Dde | Activity [7]: Dde | Activity [8]: Dde | Activity [9]: Dde | Activity [10]: Dde | Activity [11]: Dde | Activity [12]: Active | Activity [13]: Active | Activity [14]: Active | Activity [15]: Active | Activity [16]: Active | Activity [17]: Active | IC50 (NCI-H1975 [18]): 0.007 µM | Activity (NCI-H1975 [19]): Active | Activity (NCI-H1975 [20]): Active | Activity (NCI-H1975 [21]): Active | Activity [22]: Non-Toxic | Activity (NCI-H1975 [23]): Active | inhibition in vivo at 20 mg/kg (PC-9): 75% | Activity [24]: Non-Toxic | EC50 [25]: 0.579 µM
